“Also recorded” adds a separate entry of the source.
How the values were obtained:
DnaK = target: T1, DnaK (Escherichia coli, UniProt P0A6Y8); assay: DnaK ATPase activity assay; type: biochemical; conditions: 100 µM DBeQ, 37 °C
T1 construct: full-length E. coli DnaK (residues 1–638); made in house; host or cells: E. coli BL21(DE3)
Procedure: (§1) To determine the ATPase activity of DnaK, 18 μl of DnaK solution or DnaK NBD solution prepared in buffer C was mixed with 1 μl of the investigated compounds or DMSO as a control. Samples without DnaK were used as control blanks. The samples were preincubated for 10 min at 37 °C. The reaction was initiated by adding 1 μl of 100-mM ATP bringing the final concentration of DnaK to 1.1 μM or DnaK NBD to 3.4 μM. The samples were incubated at 37 °C for 70 min for DnaK or 75 min for NBD. The concentration of inorganic phosphate produced from ATP in the presence of DnaK was determined as described above for ClpB.

DnaK NBD = target: T2, DnaK NBD (Escherichia coli, UniProt P0A6Y8); assay: DnaK NBD ATPase activity assay; type: biochemical; conditions: 100 µM DBeQ, 37 °C
T2 construct: the NBD of E. coli DnaK (residues 1–388); His-tag (pET28a) (C); made in house; host or cells: E. coli BL21(DE3)
Procedure: as §1

T1 sequence (P0A6Y8 whole entry, the tested form may be a part): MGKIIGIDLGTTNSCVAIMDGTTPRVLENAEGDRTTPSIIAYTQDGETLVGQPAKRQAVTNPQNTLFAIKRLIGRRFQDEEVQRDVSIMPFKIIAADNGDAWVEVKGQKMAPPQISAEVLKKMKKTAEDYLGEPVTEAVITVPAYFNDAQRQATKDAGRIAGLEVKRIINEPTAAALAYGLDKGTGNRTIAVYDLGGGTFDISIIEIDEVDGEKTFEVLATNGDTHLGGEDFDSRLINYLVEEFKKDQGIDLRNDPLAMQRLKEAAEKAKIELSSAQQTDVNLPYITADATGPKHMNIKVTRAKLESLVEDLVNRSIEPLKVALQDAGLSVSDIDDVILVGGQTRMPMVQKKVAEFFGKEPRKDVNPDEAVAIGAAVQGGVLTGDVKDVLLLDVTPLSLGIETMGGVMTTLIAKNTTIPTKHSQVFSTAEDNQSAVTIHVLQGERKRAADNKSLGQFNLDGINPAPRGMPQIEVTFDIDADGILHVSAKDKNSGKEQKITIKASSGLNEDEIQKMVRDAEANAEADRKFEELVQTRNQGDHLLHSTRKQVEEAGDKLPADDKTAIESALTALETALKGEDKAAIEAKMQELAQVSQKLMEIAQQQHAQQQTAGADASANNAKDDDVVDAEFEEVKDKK
T2 sequence (P0A6Y8 1-388): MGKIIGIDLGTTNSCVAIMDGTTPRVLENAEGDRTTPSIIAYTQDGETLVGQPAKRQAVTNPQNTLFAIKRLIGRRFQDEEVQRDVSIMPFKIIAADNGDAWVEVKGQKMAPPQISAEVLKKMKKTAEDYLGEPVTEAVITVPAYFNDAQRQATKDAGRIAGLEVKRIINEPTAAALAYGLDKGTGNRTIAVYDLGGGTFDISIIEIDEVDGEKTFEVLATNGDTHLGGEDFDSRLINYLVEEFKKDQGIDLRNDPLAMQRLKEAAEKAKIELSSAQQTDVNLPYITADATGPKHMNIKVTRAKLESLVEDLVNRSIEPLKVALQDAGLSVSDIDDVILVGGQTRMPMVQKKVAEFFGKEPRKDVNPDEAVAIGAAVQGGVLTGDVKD

Compound: c1ccc(CNc2nc(NCc3ccccc3)c3ccccc3n2)cc1 [DBeQ, N^2,N^4-dibenzylquinazoline-2,4-diamine]
- effect on DnaK ATPase activity (DnaK): did not detect inhibition; also recorded: did not affect
- effect on ATPase activity of isolated DnaK NBD (DnaK NBD): did not inhibit

Source: publication PMC7948422, “Repurposing p97 inhibitors for chemical modulation of the bacterial ClpB–DnaK bichaperone system” (The Journal of Biological Chemistry, 2020)
